Earlier results in patent publication US20220312825A1 (priority 2021, published 2022).

Details: free base (non-protonated)

SMILES: CN1CCCC1c1cccnc1 (stereo not shown) [Free-base nicotine, 3-(1-methyl-2-pyrrolidinyl) pyridine]
- pKa value: about 8
